Results on six compounds are retold here after patent US10208089B2, “Modulation of complement activity” (priority 2014, dated 2019).

One data set relates to C5a. Nature of the data set: C5a EIA on supernatant from human RBC hemolysis assay. The data set is classed as biochemical. As to conditions: hemolysis assay supernatant diluted 1:50; read-out: IC50, inhibition of formation of C5a. The method, then: Levels of C5a correlate with complement activity and are therefore an indicator of the ability of the compounds tested to inhibit complement activity. Supernatant from the hemolysis assay was diluted 1:50 and assayed for C5a levels. […] As used herein, the term “IC50” refers to the half maximal inhibitory concentration, a value used to indicate the amount of the inhibitor needed to reduce a given reaction or process by half.
Inhibition of the production of C5a and the membrane attack complex (MAC) were measured by MicroVue EIA kits (Quidel Corporation, San Diego, Calif.).

In data set [1] the test system is membrane attack complex (MAC). Description: Membrane attack complex (MAC) EIA on supernatant from human RBC hemolysis assay. As to conditions: hemolysis assay supernatant diluted 1:5; read-out: IC50, inhibition of formation of the MAC. Format: biochemical. The procedure:
Supernatant from the hemolysis assay was diluted 1:5 and assayed for MAC levels.
C5 inhibitory activity was assessed by enzyme immunoassay (EIA). Inhibition of the production of C5a and the membrane attack complex (MAC) were measured by MicroVue EIA kits (Quidel Corporation, San Diego, Calif.).

The target of data set [2] is T1, C5 (Homo sapiens, UniProt P01031). Description: Human hemolysis assay (RBC lysis assay using complete human sera). As to conditions: inhibition of lysis of antibody-sensitized sheep erythrocytes, complete human sera. The arrangement: with complete human sera (Complement Technology, Tyler Tex.) and polypeptides; tissue Complement Technology, Tyler Tex; host or cells: complete human serum. The data set is classed as cell-based.
T1 sequence (P01031 19-1676): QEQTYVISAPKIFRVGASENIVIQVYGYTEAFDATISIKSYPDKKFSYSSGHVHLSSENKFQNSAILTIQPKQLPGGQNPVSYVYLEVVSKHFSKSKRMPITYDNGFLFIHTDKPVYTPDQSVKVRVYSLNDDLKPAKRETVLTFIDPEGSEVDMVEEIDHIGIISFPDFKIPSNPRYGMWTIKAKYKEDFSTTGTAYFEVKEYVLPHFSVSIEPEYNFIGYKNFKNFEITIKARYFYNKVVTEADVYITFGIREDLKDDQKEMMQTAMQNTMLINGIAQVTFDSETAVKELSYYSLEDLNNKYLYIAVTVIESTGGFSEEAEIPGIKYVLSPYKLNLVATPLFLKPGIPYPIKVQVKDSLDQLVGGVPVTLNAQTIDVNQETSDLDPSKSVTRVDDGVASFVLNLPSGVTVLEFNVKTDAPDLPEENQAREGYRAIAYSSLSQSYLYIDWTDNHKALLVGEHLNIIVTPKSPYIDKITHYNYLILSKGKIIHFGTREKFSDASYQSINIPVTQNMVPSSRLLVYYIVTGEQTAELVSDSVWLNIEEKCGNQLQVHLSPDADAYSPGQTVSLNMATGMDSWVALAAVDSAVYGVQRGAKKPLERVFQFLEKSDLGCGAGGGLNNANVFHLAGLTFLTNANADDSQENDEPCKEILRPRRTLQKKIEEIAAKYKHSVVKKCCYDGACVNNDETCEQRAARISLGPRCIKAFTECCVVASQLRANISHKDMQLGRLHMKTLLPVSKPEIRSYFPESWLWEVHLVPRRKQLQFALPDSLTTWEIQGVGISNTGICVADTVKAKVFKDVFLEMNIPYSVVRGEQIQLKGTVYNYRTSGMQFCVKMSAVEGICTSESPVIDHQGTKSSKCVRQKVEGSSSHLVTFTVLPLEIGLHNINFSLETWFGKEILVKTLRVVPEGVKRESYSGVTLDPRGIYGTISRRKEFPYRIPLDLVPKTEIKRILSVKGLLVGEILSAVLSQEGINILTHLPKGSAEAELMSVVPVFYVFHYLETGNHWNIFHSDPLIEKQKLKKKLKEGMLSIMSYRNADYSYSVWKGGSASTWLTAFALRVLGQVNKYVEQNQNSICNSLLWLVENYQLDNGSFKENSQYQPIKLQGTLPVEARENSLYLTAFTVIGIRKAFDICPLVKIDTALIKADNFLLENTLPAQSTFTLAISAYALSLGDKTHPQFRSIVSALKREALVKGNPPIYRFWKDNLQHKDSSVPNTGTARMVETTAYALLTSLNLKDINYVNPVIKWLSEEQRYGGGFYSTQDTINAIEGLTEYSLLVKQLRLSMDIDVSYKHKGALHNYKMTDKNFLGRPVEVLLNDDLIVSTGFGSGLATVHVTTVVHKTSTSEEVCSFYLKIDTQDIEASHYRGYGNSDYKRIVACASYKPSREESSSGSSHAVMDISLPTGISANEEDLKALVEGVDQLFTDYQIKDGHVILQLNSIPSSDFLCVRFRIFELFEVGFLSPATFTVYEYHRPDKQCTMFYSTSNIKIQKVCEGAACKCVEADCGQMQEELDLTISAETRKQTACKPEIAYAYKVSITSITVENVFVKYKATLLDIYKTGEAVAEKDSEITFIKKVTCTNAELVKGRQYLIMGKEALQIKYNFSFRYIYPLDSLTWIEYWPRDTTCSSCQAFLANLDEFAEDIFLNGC

Data set [3] concerns the target T1, C5. Description: Fluorescence polarization saturation binding of probe R3076 to C5. The arrangement: purchased Complement Technology, Tyler, Tex. As to conditions: read-out: equilibrium dissociation constant (KD). The method, then: FP was used for screening competitive polypeptide inhibitors of the C5 protein. […] The BODIPY-TMR dye attached to the C-terminal lysine of the protein and the subsequent labeled probe was purified by HPLC.
Polarization was measured over time, until binding reached equilibrium. KD was determined using Graphpad Prism (using “Saturating Binding Curves, One Site—Specific Binding With Hill Slope” as the curve fit to determine KD). […] Based on this information, 25 nM and 50 nM concentrations for R3076 (SEQ ID NO: 40) and C5 protein, respectively, were chosen for use in the competition assay. These concentrations represented the approximate level of protein necessary for 95% probe binding to C5 protein.

Another data set has as its target T2, rat C5 (Rattus norvegicus, UniProt P08650).
T2 construct: from tissue; host or cells: plasma of dosed male rats
Nature of the data set: Ex vivo hemolysis assays in the rat study.

For data set [4] the following is noted: cynomolgus monkey, single 3 mg/kg IV.
Data set [5] is described as follows: Pharmacokinetic studies in rat (IV and SC). As to conditions: male rats, SC 30 mg/kg, combined plasma concentrations of R3152 and R3201. The method, then:
Left: Male Sprague-Dawley rats (n=3) were injected intravenously at a single 2 mg/kg dose. Blood samples were collected at indicated time points, processed into plasma, and analyzed for the indicated compound by LC-MS. […] […] Blood samples were collected at indicated time points, processed into plasma, and analyzed for the indicated compound by LC-MS.
Blood samples were collected at indicated time points, processed into plasma, and analyzed for the indicated compound by LC-MS. […] Blood samples were collected at indicated time points, processed into plasma, and analyzed for the indicated compound by LC-MS.

Another data set in a line: in vivo. As to conditions: male, cynomolgus monkey, iv, 3 mg/kg.
Data set [6] relates to primate C5 protein. Nature of the data set: Ex vivo hemolysis assay on plasma samples from the cynomolgus PK study. Format: in vivo, cynomolgus monkey.
Description: Also shown are changes in hemolytic activity (squares) at the same time points.
Data set [7] deals with primate C5 protein. Nature of the data set: Hemolysis assay with exogenous compound added to normal cynomolgus plasma. Format: cell-based, cynomolgus monkey.
Data set [8] concerns the target T1, C5. Description: Alternative human hemolysis assay using C5 depleted sera and purified human C5. The data set is classed as cell-based. The arrangement: purchased Complement Technology, Tyler, Tex. As to conditions: antibody-sensitized sheep erythrocytes, 1.5% human C5 depleted sera and 0.5 nM purified human C5.

Starred links: 1 amine or outer side, 2 acyl side, 3 side chain; linkers in the order of their positions; H or OH if unused. Positions of bridges follow the written chain, without caps; N, C: chain ends. Non-standard residues stand in square brackets, D forms with d. Residues, ends and D or L forms follow the SMILES beside them. Trp(7-aza) = N[C@@H](Cc1c[nH]c2ncccc12)C(=O)O; mXylylene = c1cc(C[*:1])cc(C[*:2])c1; Phg = N[C@H](C(=O)O)c1ccccc1; NMeS = CN[C@@H](CO)C(=O)O; Nva = CCC[C@H](N)C(=O)O

T2 sequence (P08650 19-1681): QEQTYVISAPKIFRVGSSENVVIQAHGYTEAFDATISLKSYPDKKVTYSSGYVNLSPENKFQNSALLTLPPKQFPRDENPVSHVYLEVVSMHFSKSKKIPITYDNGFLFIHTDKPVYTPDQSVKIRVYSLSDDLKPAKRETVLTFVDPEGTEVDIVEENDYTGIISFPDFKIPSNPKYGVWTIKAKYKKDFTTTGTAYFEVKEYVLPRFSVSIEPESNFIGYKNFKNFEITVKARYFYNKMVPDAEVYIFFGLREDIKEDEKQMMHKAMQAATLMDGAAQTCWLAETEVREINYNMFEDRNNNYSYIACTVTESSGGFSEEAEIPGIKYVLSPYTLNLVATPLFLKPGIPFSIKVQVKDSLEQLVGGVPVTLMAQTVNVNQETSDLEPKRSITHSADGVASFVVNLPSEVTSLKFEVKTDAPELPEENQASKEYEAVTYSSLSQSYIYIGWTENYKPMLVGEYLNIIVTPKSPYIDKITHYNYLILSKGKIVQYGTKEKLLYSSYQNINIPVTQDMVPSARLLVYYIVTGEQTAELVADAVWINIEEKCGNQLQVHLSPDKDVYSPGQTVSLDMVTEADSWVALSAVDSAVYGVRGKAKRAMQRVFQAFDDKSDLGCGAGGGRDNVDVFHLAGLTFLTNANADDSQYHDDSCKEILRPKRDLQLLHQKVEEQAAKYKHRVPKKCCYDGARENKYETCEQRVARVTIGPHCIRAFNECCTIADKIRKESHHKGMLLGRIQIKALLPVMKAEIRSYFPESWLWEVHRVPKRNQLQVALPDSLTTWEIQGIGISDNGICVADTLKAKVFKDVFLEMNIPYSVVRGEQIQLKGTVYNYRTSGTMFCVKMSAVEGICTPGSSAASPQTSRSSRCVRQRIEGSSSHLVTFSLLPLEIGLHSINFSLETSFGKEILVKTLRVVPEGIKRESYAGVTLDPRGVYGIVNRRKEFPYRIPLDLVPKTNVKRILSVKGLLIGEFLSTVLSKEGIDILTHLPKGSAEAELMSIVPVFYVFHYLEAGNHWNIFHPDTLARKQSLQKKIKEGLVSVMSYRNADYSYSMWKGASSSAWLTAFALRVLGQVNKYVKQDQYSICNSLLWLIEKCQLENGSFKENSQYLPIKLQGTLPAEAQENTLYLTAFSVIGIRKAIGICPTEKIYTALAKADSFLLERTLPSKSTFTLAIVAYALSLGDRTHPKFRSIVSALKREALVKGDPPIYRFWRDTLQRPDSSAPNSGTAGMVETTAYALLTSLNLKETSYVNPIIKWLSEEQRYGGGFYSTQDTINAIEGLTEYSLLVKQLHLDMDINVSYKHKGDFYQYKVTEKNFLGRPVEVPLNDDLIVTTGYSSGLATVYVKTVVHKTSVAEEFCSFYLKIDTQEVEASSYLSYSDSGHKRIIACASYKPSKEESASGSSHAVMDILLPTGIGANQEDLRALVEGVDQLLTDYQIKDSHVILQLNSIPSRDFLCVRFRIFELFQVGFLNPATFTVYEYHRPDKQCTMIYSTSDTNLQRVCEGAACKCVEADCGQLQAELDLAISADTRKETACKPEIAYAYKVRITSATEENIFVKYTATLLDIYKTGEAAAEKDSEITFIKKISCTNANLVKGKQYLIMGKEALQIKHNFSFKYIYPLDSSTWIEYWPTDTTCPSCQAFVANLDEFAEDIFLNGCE

For `CCC[C@H](NC(=O)[C@@H]1CCCN1C(=O)[C@H](CCC)NC(=O)[C@@H]1CSCc2cccc(c2)CSC[C@H](NC(=O)[C@H](CCC)NC(C)=O)C(=O)N[C@@H](c2ccccc2)C(=O)N[C@@H]([C@@H](C)O)C(=O)N[C@@H](Cc2c[nH]c3ncccc23)C(=O)N[C@@H](CCC(=O)O)C(=O)N[C@@H](Cc2ccc(O)cc2)C(=O)N(C)[C@@H](CO)C(=O)N[C@@H](Cc2c[nH]cn2)C(=O)N1)C(N)=O` [Compound R3008, [mXylyl(2,10)]Ac-Nvl-C-Phg-T-azaTrp-E-Y-(N-Me)S-H-C-Nvl-P-Nvl-NH2] (Ac-[Nva]C[Phg]T[Trp(7-aza)]EY[NMeS]HC[Nva]P[Nva]-NH2; linker 2-10 via mXylylene), the half-maximal inhibitory concentration (IC50) was determined as 54.5 nM in the data set on C5a, 33 nM in data set [1] and 97 nM at C5 [2].

As for `CCC[C@H](NC(C)=O)C(=O)N[C@@H](CCC)C(=O)N[C@@H](Cc1ccc(O)cc1)C(=O)N[C@@H](CCC(=O)O)C(=O)N[C@@H](CC(N)=O)C(=O)N[C@H](C(=O)N[C@@H](Cc1ccc(O)cc1)C(=O)N[C@@H](Cc1c[nH]c2ncccc12)C(=O)N[C@@H](CCC(=O)O)C(=O)N[C@@H](Cc1ccc(O)cc1)C(=O)N1CCC[C@H]1C(=O)N[C@H](C(=O)N[C@@H](CCC)C(=O)N[C@@H](CCCCNC(=O)CCCCCNC(=O)CCC1=C(C)C2=Cc3ccc(-c4ccc(OC)cc4)n3[B-](F)(F)[N+]2=C1C)C(N)=O)C1CCCCC1)C(C)(C)C` [Compound R3076, Ac-Nvl-Nvl-Y-E-N-Tbg-Y-azaTrp-E-Y-P-Chg-Nvl-K-(BODIPY-TMR-X) NH2], the half-maximal inhibitory concentration (IC50) on C5 [2] turned out to be 297 nM. Further, the Kd at C5 [3] came to 8.07 nM.

In the case of `CCC[C@H](NC(=O)[C@@H](NC(=O)[C@@H]1CCCN1C(=O)[C@H](Cc1ccc(O)cc1)NC(=O)[C@H](CCC(=O)O)NC(=O)[C@H](Cc1c[nH]c2ncccc12)NC(=O)[C@H](Cc1ccc(O)cc1)NC(=O)[C@@H](NC(=O)[C@H](CC(=O)O)NC(=O)[C@@H]1CSCc2cccc(c2)CSC[C@H](NC(C)=O)C(=O)N[C@@H](C(C)C)C(=O)N[C@@H](CCC(=O)O)C(=O)N[C@@H](CCCNC(=N)N)C(=O)N[C@@H](Cc2ccccc2)C(=O)N1)C(C)(C)C)C1CCCCC1)C(N)=O` [Compound R3152, [mXylyl(1,6)]Ac-C-V-E-R-F-C-D-Tbg-Y-azaTrp-E-Y-P-Chg-Nvl-NH2], the “inhibitory activity in ex vivo hemolysis assays (in words)” value on rat C5 is on record as “very little inhibitory activity”. Moreover, at rat C5 (in vivo), the “binding to rat C5 (in words)” value is on record as “do not bind”. Moreover, in data set [4], the initial distribution phase was less than 1 h and the “time for which plasma drug levels were detectable” value is given as “up to 48 hours”. Moreover, in data set [5], the “bioavailability of dose, based on AUC” value was “approximately 65%”. In the data set “in vivo”, this compound gave an AUC(0-inf) of 23300 ± 2120 ng·h/mL, a Vd of 1.49 ± 0.152 L/kg, a clearance of 2.15 mL/min/kg and a half-life of 10.9 ± 0.8 h. In addition, the level at 48 h in “in vivo” was less than 100 ng/mL. For the same compound, the “binding to primate C5 protein (in words)” value with primate C5 protein [6] (cynomolgus monkey, in vivo) is given as “binds with high affinity”. The “time after dosing at which hemolytic activity returned to normal levels” value in the data set with primate C5 protein [6] (cynomolgus monkey, single 3 mg/kg IV) was 48 h. In the data set on primate C5 protein [6] (cynomolgus plasma diluted 1:100, activated sheep red blood cells), the “plasma concentration with clear inhibition of complement-mediated hemolysis” value is recorded as greater than 200 ng/mL. The compound also showed an IC50 in the data set with primate C5 protein [7] of 2 to 20 ng/mL.

As to `CC(=O)N[C@H]1CCCCNC(=O)C[C@@H](C(=O)N(C)[C@@H](CC(=O)O)C(=O)N[C@H](C(=O)N[C@@H](Cc2ccc(O)cc2)C(=O)N[C@@H](Cc2c[nH]c3ncccc23)C(=O)N[C@@H](CCC(=O)O)C(=O)N[C@@H](Cc2ccc(O)cc2)C(=O)N2CCC[C@H]2C(=O)N[C@H](C(=O)N[C@@H](CCCCN)C(N)=O)C2CCCCC2)C(C)(C)C)NC(=O)[C@H](Cc2ccccc2)NC(=O)[C@H](CCCNC(=N)N)NC(=O)[C@H](CCC(=O)O)NC(=O)[C@H](C(C)C)NC1=O` [Compound R3192, [cyclo(1,6)]Ac-K-V-E-R-F-D-(N-Me)D-Tbg-Y-azaTrp-E-Y-P-Chg-K-NH2], on C5 [8], the half-inhibitory concentration (IC50) worked out at 1.5 nM.

As to `CCCCCCCCCCCCCCCC(=O)NCCCC[C@H](NC(=O)[C@@H](NC(=O)[C@@H]1CCCN1C(=O)[C@H](Cc1ccc(O)cc1)NC(=O)[C@H](CCC(=O)O)NC(=O)[C@H](Cc1c[nH]c2ncccc12)NC(=O)[C@H](Cc1ccc(O)cc1)NC(=O)[C@@H](NC(=O)[C@H](CC(=O)O)N(C)C(=O)[C@@H]1CC(=O)NCCCC[C@H](NC(C)=O)C(=O)N[C@@H](C(C)C)C(=O)N[C@@H](CCC(=O)O)C(=O)N[C@@H](CCCNC(=N)N)C(=O)N[C@@H](Cc2ccccc2)C(=O)N1)C(C)(C)C)C1CCCCC1)C(N)=O` [Compound R3194, [cyclo(1,6)]Ac-K-V-E-R-F-D-(N-Me)D-Tbg-Y-azaTrp-E-Y-P-Chg-(Lys-C16)-NH2], the IC50 at C5 [8] was determined as 15.5 nM.

On to `CCCCCCCCCCCCCCCC(=O)NCCCC[C@H](NC(=O)[C@@H](NC(=O)[C@@H]1CCCN1C(=O)[C@H](Cc1ccc(O)cc1)NC(=O)[C@H](CCC(=O)O)NC(=O)[C@H](Cc1c[nH]c2ncccc12)NC(=O)[C@H](Cc1ccc(O)cc1)NC(=O)[C@@H](NC(=O)[C@H](CC(=O)O)N(C)C(=O)[C@@H]1CSSCCC(=O)N[C@@H](C(C)C)C(=O)N[C@@H](CCC(=O)O)C(=O)N[C@@H](CCCNC(=N)N)C(=O)N[C@@H](Cc2ccccc2)C(=O)N1)C(C)(C)C)C1CCCCC1)C(=O)O` [Compound R3198, [cyclo(1,6)](desamino)C-V-E-R-F-C-(N-Me)D-Tbg-Y-azaTrp-E-Y-P-Chg-(Lys-C16)], for which the IC50 at C5 [8] was found to be 142 nM.
